Test results from US12473291B2 (priority 2019, dated 2025).

Assays:
[1] = test system: KM mice; experiment: animal or person; assay type: in vivo; settings: for 2ED50 duration / 2ED50 recovery time / Quality of recovery: KM mice; for 2ED50 duration / 2ED50 recovery time: single tail vein injection at 2×ED50; for 2ED50 duration: time from disappearance to recovery of righting reflex; for 2ED50 recovery time: time from recovery of righting reflex to free crawling; for Quality of recovery: tail vein injection; for ED50: Mus musculus, KM mice (male, 18-22 g), injection via the tail vein, disappearance of righting reflex, read-out: ED50; for duration and recovery time compared with remimazolam / effective dose compared with remimazolam: mice, tail vein, in words
[2] = test system: SD rats; experiment: animal or person; assay type: in vivo; settings: for ED50: Rattus norvegicus, SD rats (male, 220-300 g), injection via the tail vein, disappearance of righting reflex, read-out: ED50; for 2ED50 duration / 2ED50 recovery time / Quality of recovery: SD rats; for 2ED50 duration / 2ED50 recovery time: single tail vein injection at 2×ED50; for 2ED50 duration: time from disappearance to recovery of righting reflex; for 2ED50 recovery time: time from recovery of righting reflex to free crawling; for Quality of recovery: tail vein injection; for duration and recovery time compared with remimazolam / effective dose compared with remimazolam: rats, tail vein, in words

SMILES | 2ED50 duration [1] [min] | 2ED50 recovery time [1] [min] | Quality of recovery [1] | ED50 [1] [mg/kg] | ED50 [2] [mg/kg] | 2ED50 duration [2] [min] | 2ED50 recovery time [2] [min] | Quality of recovery [2] | duration and recovery time compared with remimazolam [1] | effective dose compared with remimazolam [1] | duration and recovery time compared with remimazolam [2] | effective dose compared with remimazolam [2]
COC(=O)OCOC(=O)CC[C@@H]1N=C(c2ccccn2)c2cc(Br)c(Br)cc2-n2c(C)cnc21 [Example 8] | 5.23 | 2.18 | +++ (“+++” means 3-5 min) | 27.5 | 5.8 | 5.05 | 2.18 | ++++ (“++++” means 5-10 min) |  |  |  | 
CCOC(=O)OCOC(=O)CC[C@@H]1N=C(c2ccccn2)c2cc(Br)c(Br)cc2-n2c(C)cnc21 [Example 9] | 5.48 | 2.07 | ++++ (“++++” means 5-10 min) | 31.6 | 5.6 | 4.12 | 2.57 | +++ (“+++” means 3-5 min) |  |  |  | 
Cc1cnc2n1-c1cc(Br)c(Br)cc1C(c1ccccn1)=N[C@H]2CCC(=O)OCOC(=O)OC(C)C [Example 10] | 5.12 | 2.06 | +++ (“+++” means 3-5 min) | 28.3 | 5.8 | 5.31 | 2.06 | ++ (“++” means 1-3 min) |  |  |  | 
Cc1cnc2n1-c1cc(Br)c(Br)cc1C(c1ccccn1)=N[C@H]2CCC(=O)OCOC(=O)OC(C)(C)C [Example 11] | 5.31 | 2.13 | ++ (“++” means 1-3 min) | 22.4 | 5.9 | 5.03 | 2.43 | +++ (“+++” means 3-5 min) |  |  |  | 
CCC(CC)OC(=O)OCOC(=O)CC[C@@H]1N=C(c2ccccn2)c2cc(Br)c(Br)cc2-n2c(C)cnc21 [Example 12] | 5.32 | 2.04 | +++ (“+++” means 3-5 min) | 31.3 | 5.7 | 5.24 | 2.04 | ++ (“++” means 1-3 min) |  |  |  | 
Cc1cnc2n1-c1cc(Br)c(Br)cc1C(c1ccccn1)=N[C@H]2CCC(=O)OCOC(=O)OC(C)C(C)C (stereo partly drawn) [Example 13] | 5.22 | 2.34 | +++ (“+++” means 3-5 min) | 27 | 5.3 | 4.02 | 2.45 | +++ (“+++” means 3-5 min) |  |  |  | 
Cc1cnc2n1-c1cc(Br)c(Br)cc1C(c1ccccn1)=N[C@H]2CCC(=O)OCOC(=O)OC(C(C)C)C(C)C [Example 14] | 6.42 | 2.29 | +++ (“+++” means 3-5 min) | 32 | 6.9 | 5.06 | 2.39 | ++ (“++” means 1-3 min) |  |  |  | 
COC(=O)OC(C)OC(=O)CC[C@@H]1N=C(c2ccccn2)c2cc(Br)c(Br)cc2-n2c(C)cnc21 (stereo partly drawn) [Example 15] | 1.43 | 1.01 |  | 18.3 | 1.5 | 1.29 | 1.01 | + (“+” means <1 min) | significantly shorter | significantly lower | significantly shorter | significantly lower
CCOC(=O)OC(C)OC(=O)CC[C@@H]1N=C(c2ccccn2)c2cc(Br)c(Br)cc2-n2c(C)cnc21 (stereo partly drawn) [Example 16] | 1.57 | 1.23 |  | 15.7 | 3.4 | 0.57 | 0.53 | + (“+” means <1 min) | significantly shorter | significantly lower | significantly shorter | significantly lower
Cc1cnc2n1-c1cc(Br)c(Br)cc1C(c1ccccn1)=N[C@H]2CCC(=O)OC(C)OC(=O)OC(C)C (stereo partly drawn) [Example 17] | 4.39 | 2.53 | ++ (“++” means 1-3 min) | 29.2 | 4.3 | 4.39 | 2.43 | ++ (“++” means 1-3 min) |  |  |  | 
COC(=O)C1(OC(=O)CC[C@@H]2N=C(c3ccccn3)c3cc(Br)c(Br)cc3-n3c(C)cnc32)CC1 [Example 18] | 5.09 | 2.49 | +++ (“+++” means 3-5 min) | 30.1 | 4.8 | 4.49 | 2.58 | +++ (“+++” means 3-5 min) |  |  |  | 
CCOC(=O)C1(OC(=O)CC[C@@H]2N=C(c3ccccn3)c3cc(Br)c(Br)cc3-n3c(C)cnc32)CC1 [Example 19] | 6.07 | 2.09 | ++++ (“++++” means 5-10 min) | 23.2 | 5.6 | 4.07 | 2.12 | +++ (“+++” means 3-5 min) |  |  |  | 
COC(=O)COC(=O)CC[C@@H]1N=C(c2ccccn2)c2cc(Br)c(Br)cc2-n2c(C)cnc21 [Example 20] | 4.47 | 2.43 | +++ (“+++” means 3-5 min) | 31.4 | 4.7 | 3.47 | 2.49 | ++ (“++” means 1-3 min) |  |  |  | 
CCOC(=O)COC(=O)CC[C@@H]1N=C(c2ccccn2)c2cc(Br)c(Br)cc2-n2c(C)cnc21 [Example 21] | 3.08 | 2.01 | ++ (“++” means 1-3 min) | 25.9 | 4.2 | 3.08 | 2.27 | ++ (“++” means 1-3 min) |  |  |  | 
COC(=O)C(C)OC(=O)CC[C@@H]1N=C(c2ccccn2)c2cc(Br)c(Br)cc2-n2c(C)cnc21 (stereo partly drawn) [Example 22] | 5.58 | 2.18 | ++ (“++” means 1-3 min) | 30.7 | 4.3 | 3.28 | 2.46 | ++ (“++” means 1-3 min) |  |  |  | 
COC(=O)C(C)(C)OC(=O)CC[C@@H]1N=C(c2ccccn2)c2cc(Br)c(Cl)cc2-n2c(C)cnc21 [Example 24] | 1.50 | 1.02 |  | 12 | 6.8 | 0.50 | 0.47 | + (“+” means <1 min) | significantly shorter | significantly lower | significantly shorter | significantly lower
COC(=O)C1(OC(=O)CC[C@@H]2N=C(c3ccccn3)c3cc(Cl)c(C(F)(F)F)cc3-n3c(C)cnc32)CC1 [Example 25] | 5.32 | 2.19 | ++ (“++” means 1-3 min) | 34 | 4.2 | 3.53 | 2.21 | ++ (“++” means 1-3 min) |  |  |  | 
CCOC(=O)C1(OC(=O)CC[C@@H]2N=C(c3ccccn3)c3cc(F)c(C)cc3-n3c(C)cnc32)CC1 [Example 26] | 4.38 | 2.08 | +++ (“+++” means 3-5 min) | 23.7 | 3.7 | 3.48 | 2.04 | ++ (“++” means 1-3 min) |  |  |  | 
COC(=O)COC(=O)CC[C@@H]1N=C(c2ccccn2)c2cc(F)c(OC)cc2-n2c(C)cnc21 [Example 27] | 1.46 | 1.20 |  | 15.3 | 6.3 | 1.16 | 1.05 | + (“+” means <1 min) | significantly shorter | significantly lower | significantly shorter | significantly lower
CCOC(=O)COC(=O)CC[C@@H]1N=C(c2ccccn2)c2cc(Cl)c(OC(F)(F)F)cc2-n2c(C)cnc21 [Example 28] | 0.52 | 0.58 |  | 9.5 | 4.5 | 0.58 | 0.33 | + (“+” means <1 min) | significantly shorter | significantly lower | significantly shorter | significantly lower
COC(=O)C(C)OC(=O)CC[C@@H]1N=C(c2ccccn2)c2c(cc(Cl)c(Cl)c2Cl)-n2c(C)cnc21 (stereo partly drawn) [Example 29] | 4.59 | 2.48 | +++ (“+++” means 3-5 min) | 30.8 | 5.8 | 3.59 | 2.44 | +++ (“+++” means 3-5 min) |  |  |  | 
